Consider eleven compounds from ChEMBL document CHEMBL1201862, “PubChem BioAssay data set” (2004).

Among the test systems are DMS-273; HCT-116; HL-60; HT-29; IGROV-1; K562; Malme-3M; OVCAR-3; OVCAR-4; SF-268; SF-539; SK-MEL-28; SK-MEL-2; SNB-75; TK-10; UO-31; SF-295; HOP-92; Hs-578T; MCF7.
Holding throughout (test): NCI-60 cell line screen, 48 h

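Exposure lasted 48 hours, with cells grown in 96-well plates and compounds tested at five concentrations. GI50 = concentration required for 50% inhibition of growth.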 Active and inactive are the calls of the source. Rule as the data show it: active = GI50 up to about 1.1 µM and inactive = higher. *1 amine or outer side, *2 acyl side, *3 side chain or, on linkers, in order; H or OH if unused. Where a SMILES comes first, the peptide text is derived from it. Bridges are numbered along the chain shown (N, C = ends). Roman numbers before positions name the chains, in order. [ ]: non-standard residue; d: D form. Actinocin(9to1) = Cc1c2oc3c(C)ccc(C(=O)[*:1])c3nc-2c(C(=O)[*:2])c(N)c1=O; NMeV = CN[CH](C(=O)O)C(C)C; Sar = CNCC(=O)O A value given as a limit tells only on which side of the number the result lay.

Consider `Cc1ccc(/C=C2\CCCC(C(NO)c3ccc(C)cc3)C2=NO)cc1` (centres undefined), for which the GI50 in the test on DMS-273 is 42 µM (inactive); with HCT-116 it was 45.6 µM (inactive); in the test with HL-60 it was 19.5 µM (inactive); in the test with HT-29, 19.5 µM (inactive); in the test on IGROV-1, > 100 µM (inactive); in the test with K562 it was 33.8 µM (inactive). Also, the GI50 was 52.2 µM (inactive) with Malme-3M; 16.7 µM (inactive) in the test with OVCAR-3; 20 µM (inactive) with OVCAR-4; 17.6 µM (inactive) with SF-268; 39.6 µM (inactive) in the test on SF-539; 16.1 µM (inactive) in the test with SK-MEL-28. The GI50 with SK-MEL-2 is 69.2 µM (inactive); with SNB-75, 28 µM (inactive); with TK-10 it was > 100 µM (inactive); with UO-31 it was 57.4 µM (inactive).
Take `COc1nc2c(c(O)c(C)c(=O)n2OC2OC(COC(C)=O)C(OC(C)=O)C(OC(C)=O)C2OC(C)=O)c(=O)n1C` (centres undefined): the GI50 in the test on DMS-273, with HCT-116, in the test with HT-29, in the test on IGROV-1, in the test on K562 and with OVCAR-4 was > 100 µM (inactive) each time. Also, the GI50 in the test on SF-268, with SF-295, in the test with SF-539, in the test on SK-MEL-28, in the test on SK-MEL-2 and with SNB-75 was > 100 µM (inactive) throughout. Also, the GI50 in the test on TK-10 and in the test on UO-31 was > 100 µM (inactive) in each case.
With `CSc1nnc(C(C#N)C#N)nn1`, the GI50 in the test with DMS-273, in the test with HCT-116, with HL-60, in the test with HOP-92, in the test with HT-29 and with IGROV-1 was > 100 µM (inactive) throughout. The GI50 with K562, in the test with Malme-3M, with OVCAR-3, with OVCAR-4, in the test with SF-268 and in the test on SF-295 was > 100 µM (inactive) throughout. Further, the GI50 in the test on SF-539, with SNB-75, with TK-10 and in the test on UO-31 was > 100 µM (inactive) each time.
On to `CCCCOC(=O)C1C(c2ccc(Cl)cc2)NC(c2ccc(Cl)cc2)C(C(=O)OCCCC)S1(=O)=O` (centres undefined), for which the GI50 in the test with DMS-273 is > 100 µM (inactive); in the test with HL-60, 8.83 µM (inactive); in the test with HOP-92, > 100 µM (inactive); in the test on HT-29 it was > 100 µM (inactive); in the test with IGROV-1, > 100 µM (inactive); in the test with K562, > 100 µM (inactive). In addition, the GI50 with Malme-3M, in the test with OVCAR-3, in the test on OVCAR-4, in the test on SF-268, with SF-295 and with SF-539 was > 100 µM (inactive) in each case. Besides, the GI50 in the test on SK-MEL-28, in the test with SK-MEL-2, in the test with SNB-75, with TK-10 and with UO-31 was > 100 µM (inactive) each time.
`Cc1c2oc3c(C)ccc(C(=O)NC4C(=O)NC(C(C)C)C(=O)N5CCCC5C(=O)N(C)CC(=O)N(C)C(C(C)C)C(=O)OC4C)c3nc-2c(C(=O)NC2C(=O)NC(C(C)C)C(=O)N3CCCC3C(=O)N(C)CC(=O)N(C)C(C(C)C)C(=O)OC2C)c(N)c1=O` (centres undefined) (I: TVP[Sar][NMeV] / II: TVP[Sar][NMeV]; ester I:1-I:C, II:1-II:C; linker I:N-II:N via Actinocin(9to1); configuration not given here): the GI50 is < 0.0001 µM (active) with HCT-116; 0.00017 µM (active) in the test with HL-60; 0.00177 µM (active) with HOP-92; < 0.0001 µM (active) in the test with HT-29; 0.000143 µM (active) in the test on Hs-578T; 0.00011 µM (active) in the test with IGROV-1. For the same compound, the GI50 was < 0.0001 µM (active) in the test with K562; < 0.0001 µM (active) in the test with MCF7; 0.000273 µM (active) in the test on Malme-3M; 0.00105 µM (active) with OVCAR-3; 0.000445 µM (active) in the test with OVCAR-4; < 0.0001 µM (active) with SF-268. The GI50 with SF-295 was 0.000522 µM (active); with SF-539, < 0.0001 µM (active); in the test with SK-MEL-28 it was 0.000764 µM (active); in the test on SK-MEL-2, < 0.0001 µM (active); in the test on SNB-75, < 0.0001 µM (active); with TK-10 it was 0.0101 µM (active). The GI50 in the test on UO-31 was 0.0152 µM (active).
Turning to `Cc1ccc(S(=O)(=O)C(CC(NC=O)S(=O)(=O)c2ccc(C)cc2)NC=O)cc1` (centres undefined), the GI50 with DMS-273, with HCT-116, with HL-60, with HOP-92, in the test with HT-29 and in the test on IGROV-1 was > 100 µM (inactive) each time. The GI50 in the test with K562, in the test on Malme-3M, with OVCAR-3, in the test with OVCAR-4, in the test with SF-268 and in the test on SF-295 was > 100 µM (inactive) each time. Besides, the GI50 in the test on SF-539, with SNB-75, in the test with TK-10 and in the test with UO-31 was > 100 µM (inactive) in each case.
Turning to `Cc1cc2c(C)nn(Cc3ccccc3Cl)c2c(C#N)c1C`, the GI50 with DMS-273, in the test on HCT-116, with HL-60, with HOP-92, in the test on HT-29 and with IGROV-1 was > 100 µM (inactive) in each case. Further, the GI50 in the test on Malme-3M, in the test on OVCAR-3, in the test on SF-268, with SF-295, in the test with SF-539 and in the test on SK-MEL-28 was > 100 µM (inactive) in each case. In addition, the GI50 in the test with SK-MEL-2, in the test on SNB-75, in the test on TK-10 and with UO-31 was > 100 µM (inactive) each time.
On to `Cc1ccc(-c2cc(=O)c3cc(C)c(C)c(C(=O)O)c3o2)cc1`, for which the GI50 in the test on DMS-273 was > 100 µM (inactive); with HCT-116, > 100 µM (inactive); in the test with HOP-92, > 100 µM (inactive); in the test on HT-29 it was > 100 µM (inactive); in the test with IGROV-1, > 100 µM (inactive); in the test on K562 it was > 10 µM (inactive). For the same compound, the GI50 in the test on Malme-3M is > 100 µM (inactive); with OVCAR-3, > 100 µM (inactive); with OVCAR-4 it was > 100 µM (inactive); with SF-268, > 100 µM (inactive); in the test with SF-295, > 100 µM (inactive); in the test on SF-539 it was 29.9 µM (inactive). Further, the GI50 in the test with SK-MEL-28 is > 100 µM (inactive); with SK-MEL-2, > 100 µM (inactive); with SNB-75 it was 47.9 µM (inactive); in the test with TK-10, > 100 µM (inactive); with UO-31, > 100 µM (inactive).
For `CC(C)(C)Nc1noc(=O)n1C(C)(C)C`, the GI50 in the test with HCT-116, with HL-60, in the test on HOP-92, in the test with HT-29, with Hs-578T and in the test with IGROV-1 was > 100 µM (inactive) in each case. The GI50 in the test with K562, with MCF7, in the test on Malme-3M, in the test on OVCAR-3, with OVCAR-4 and in the test on SF-268 was > 100 µM (inactive) in each case. Moreover, the GI50 with SF-295, in the test on SF-539, with SK-MEL-28, with SK-MEL-2, with SNB-75 and in the test with TK-10 was > 100 µM (inactive) throughout. The GI50 in the test on UO-31 was > 100 µM (inactive).
In the case of `Cc1ccccc1C1OC(=O)c2ccccc21` (centres undefined), the GI50 in the test on DMS-273, in the test on HCT-116, in the test on HL-60, in the test on HT-29, in the test on IGROV-1 and in the test on K562 was > 100 µM (inactive) throughout. Moreover, the GI50 with Malme-3M, in the test on OVCAR-3, with SF-268, in the test with SF-539, with SK-MEL-28 and in the test with SK-MEL-2 was > 100 µM (inactive) in each case. Besides, the figures for the GI50 with SNB-75, with TK-10 and in the test on UO-31 were 77.3 µM (inactive), > 100 µM (inactive) and > 100 µM (inactive), respectively.
`C[C@H](CC[C@@H](O)C(C)(C)O)[C@H]1CC[C@@]2(C)[C@@H]3CC=C4[C@@H](CC[C@H](OC5OC(CO)C(O)C(O)C5O)C4(C)C)[C@]3(C)C(=O)C[C@]12C` (some centres undefined): the GI50 in the test with HCT-116 was 45.3 µM (inactive); in the test with HL-60 it was 20.7 µM (inactive); in the test with HOP-92, > 100 µM (inactive); with HT-29, 26.1 µM (inactive); with Hs-578T, 37.3 µM (inactive); with IGROV-1, 19.8 µM (inactive). Further, the GI50 is 18.9 µM (inactive) in the test on K562; 51.5 µM (inactive) with MCF7; 49.4 µM (inactive) with Malme-3M; 65 µM (inactive) in the test on OVCAR-3; 45.3 µM (inactive) in the test on OVCAR-4; 57.7 µM (inactive) with SF-268. For the same compound, the GI50 was 90.4 µM (inactive) in the test with SF-295; > 100 µM (inactive) with SF-539; 27.7 µM (inactive) with SK-MEL-28; 26.3 µM (inactive) in the test on SK-MEL-2; 34.3 µM (inactive) with SNB-75; 60.8 µM (inactive) in the test on TK-10. The GI50 with UO-31 was 28.9 µM (inactive).
